Data reported in patent publication US6710066B2, “Photochemotherapeutic method using 5-aminolevulinic acid and other precursors of endogenous porphyrins” (priority 1989, dated 2004).

Columns and labels:
[1] = test system: endometrium and myometrium; assay: Endometrial fluorescence in vivo following topical application of ALA in the non-human primate; parameters: species or system rhesus monkey; conditions: 50 mg ALA into uterine lumen, hysterectomy 3 hours later
Experimental: 50 mg of ALA was injected into the uterine lumen of an adult, healthy, female rhesus monkey following exposure of the uterus at laparotomy. A hysterectomy was performed 3 hours later and cross sectional slices incorporating endometrial and myometrial tissue were taken from the uterine specimen. These slices were subjected to examination by fluorescence microscopy as in Example 2 and 3 above.

[2] = test system: Candida albicans, Candida glabrata, Cryptococcus neoformans, Penicillium species, Aspergillus niger, Aspergillus fumigatus, Alternaria species, Saccharomyces …; assay: In vitro PpIX fluorescence of yeast and fungi treated with ALA; format: cell-based; conditions: ALA 1 mM to 100 mM or 20-80% solutions in water
Experimental: Clinical isolates of Candida albicans, Candida glabrata, and Cryptococcus neoformans and environmental isolates of Penicillium species, Aspergillus niger, Aspergillus fumigatus, and Alternaria species and Saccharomyces cerivisiae (brewer's yeast) obtained from the clinical microbiology laboratories of Kingston General Hospital, Kingston, Ontario, Canada were used. The organisms were plated, and during rapid growth were treated with various concentrations of ALA varying from 1 mM to 100 mM by flooding or by using diffusion wells in the agar, while the isolates of Penicillium and Aspergillus were treated with 40% or 80% solutions of ALA in water and the Penicillium species, Alternaria species, Aspergillus niger and Aspergillus fumigatus were treated with 20% ALA in water via diffusion wells.

C. albicans lesions = assay: PpIX fluorescence of intradermal C. albicans lesions in hairless mice given ALA; format: in vivo, mouse; conditions: 240 mg/kg ALA intraperitoneal, 3 hours
Experimental: The procedure of Giger et al. Infection and Immunity 19 (2) 499-509 (February 1978) was used with the following modifications. A clinical specimen of C. albicans was replated in blood agar so it was actively growing and left at room temperature for 72 hours. The sample was suspended in TSB to McFarland 0.5 turbidity after which a 1.0 ml sample was inoculated into an aerobic culture bottle and left shaking for 24 hours on a 37° C. rotor shaker. A 10 ml sample was withdrawn and centrifuged at […] for 10 minutes to separate the cells from the media. The supernate was discarded and the pellet resuspended in 10 ml of TSB. Serial dilusions (10^−1 to 10^−5) were made in and replicated twice on agar and left to incubate for two days at 37° C. […]
Three hours prior to their sacrifice, the mice were given 240 mg/kg ALA (10 mg/ml) by intraperitoneal injection, with the exception of mouse #3 which was used as a control. Fluorescence emission spectra on the live mice were taken every 15 minutes (mouse #1 readings every 20 minutes) for 3 hours after injection on each lesion, and at various control areas of the mice—neck skin flap and lateral side opposite the lesion on mouse 5. […] The frozen lesions were sectioned and slides were prepared for spectral analysis or fluorescence microscopy, H and E staining for histology, and Grocott silver stains for fungi identification.

P. yoelii [3] = test system: P. yoelii
Description: (A) Infectivity Assay: Mice infected with P. yoelii were given a standard dose of ALA by intraperitoneal injection. Peripheral blood and/or spleen cells were collected after a standard interval, exposed to standard doses of photoactivating light (including a no-light control) and then injected into normal mice.
Four hours later, its spleen cells were suspended in isotonic saline. Half of the spleen cell suspension was placed on ice and ekxposed to photoactivating light (waveband 600-700 nm, intensity […], total dose 540 J/cm^2), while the other half was kept on ice in the dark. Balb/c mice were injected intraperitoneally with either the light treated or untreated sample. Survival of the mice was followed for 90 days. FIG. 1 illustrates the duration of survival of individual mice following the injection of spleen cells infected with P. yoelii.

P. yoelii [4] = assay: In vitro incubation of blood, spleen or marrow cells from P. yoelii infected mice with ALA; format: cell-based, mouse
Experimental: For the in vitro studies, no ALA was given to the donor mice. Two drops of whole blood were withdrawn from the tail of each mouse and placed in a 35 mm petri dish containing 3 cc of RPMI 1640 without phenol red.
i) a petri dish contained infected whole blood with […] ALA in RPMI.
ii) a second petri dish contained infected whole blood plus RPMI but not ALA.
iii) a third petri dish contained normal whole blood cells with 5 mM ALA in RPMI.
iv) a fourth petri dish contained normal whole blood cells with RPMI but not ALA.
All petri dishes were incubated at 37 Celsius and room air environment. Samples (0.5 cc) were taken at regular intervals from these incubated petri dishes to be analyzed in the flow cytometer to follow accumulation of PpIX.

P. chabaudi = test system: P. chabaudi
Description: These examples involve the murine malarial parasites Plasmodium yoelii (lethal strain) and Plasmodium chabaudi (non-lethal strain) as models for human malaria.

acne lesions = assay: PpIX induced fluorescence in subjects with truncal acne after topical ALA; format: in vivo, human
Experimental: Evaluation of PpIX induced fluorescence in 8 subjects with mild to moderate truncal acne was performed. Bacterial infections are frequently associated with lesions of acne, e.g., P. acne. Following evaluation of baseline acne lesion fluorescence, ALA solution 10 and 20% was applied to 10 5 cm^2 sites on the chest or back of volunteers and evaluated at times 0, 3, 8 and 24 hours after ALA application. One site of each concentration was also occluded with opaque film for 3 hours and evaluated at similar time points for comparison with unoccluded sites. Fluorescence of both acneiform lesions as well as surrounding normal skin was assessed visually using a 4 point grading system (0=none, 4=extremely severe) and documented photographically.

L. donovani = assay: PpIX accumulation on exposure to exogenous ALA, Leishmania; conditions: exposed to exogenous ALA
[5] = test system: Lumbricus terrestris (dewworm); assay: PpIX accumulation on exposure to exogenous ALA, dewworm; conditions: exposed to exogenous ALA
[6] = cited from earlier work
[7] = ALA in vivo, then photoactivating light
[8] = exposed to exogenous ALA, Example 10 list
[9] = cells incubated with ALA in vitro
[10] = ALA by intraperitoneal injection
[11] = ALA solution 10 and 20%, unoccluded sites
[12] = sites occluded with opaque film for 3 hours

NCC(=O)CCC(=O)O [ALA, 5-Amino-4-oxopentanoic acid]
fluorescence in endometrium [1]: Fluorescence was observed throughout the endometrium of all slices
fluorescence in myometrium [1]: No fluorescence was observed
PpIX accumulation in molds and yeasts [2]: Positive PpIX accumulation
PpIX accumulation in primary and secondary lesions (C. albicans lesions): increased PpIX accumulation relative to the control mice
ability of plasmodia to accumulate calcein from calcein-AM (P. yoelii [3]; [7]): lost their normal ability to accumulate calcein
ability of plasmodia to cause malaria in recipient mice (P. yoelii [3]; [7]): lost their ability to cause malaria when injected into recipient mice
survival of recipients of infected spleen cells (P. yoelii [3]; donor 250 mg/kg ALA, cells exposed to photoactivating light 600-700 nm, 540 J/cm^2): remained in good health for 90 days
average survival of recipients of infected spleen cells (P. yoelii [3]; donor 250 mg/kg ALA, cells kept in the dark): 15 days
accumulation of photosensitizing concentrations of PpIX (P. yoelii [3]; [8]): ALA-induced photosensitization
PpIX fluorescence of whole blood incubated with ALA, flow cytometer (P. yoelii [4]; ALA in RPMI 1640 (5 nM infected, 5 mM normal blood as printed), 37 Celsius): Only cells from infected mice developed PpIX fluorescence when incubated with ALA
PpIX accumulation in non-infected erythrocytes and leukocytes (P. yoelii [4]; [9]): significant concentrations of PpIX did not accumulate
PpIX accumulation in plasmodia within erythrocytes (P. yoelii [4]; [9]): accumulated within many of the plasmodia
PpIX accumulation in non-infected erythrocytes and leukocytes (P. chabaudi; [10]): significant concentrations of PpIX did not accumulate
PpIX accumulation in plasmodia within erythrocytes (P. chabaudi; [10]): accumulated in many of the plasmodia
ability of plasmodia to accumulate calcein from calcein-AM (P. chabaudi; [7]): lost their normal ability to accumulate calcein
ability of plasmodia to cause malaria in recipient mice (P. chabaudi; [7]): lost their ability to cause malaria when injected into recipient mice
accumulation of fluorescing concentrations of PpIX (P. chabaudi; [8]): ALA-induced fluorescence
accumulation of photosensitizing concentrations of PpIX (P. chabaudi; [8]): ALA-induced photosensitization
damage to non-infected erythrocytes and leukocytes (P. chabaudi; mouse, in vivo): showed no morphological evidence of damage
PpIX fluorescence by 24 hours (acne lesions; [11]): weak or no fluorescence
dose dependence of increase in PpIX fluorescence (acne lesions; [11]): dose dependent
specificity of PpIX fluorescence (acne lesions; [11]): specific for acne lesions and spared normal surrounding skin
time of maximum PpIX fluorescence (acne lesions; [11]): 8 h
PpIX fluorescence at 24 hours (acne lesions; [12]): remained present at 24 hours
distribution of PpIX fluorescence (acne lesions; [12]): developed PpIX fluorescence in both acne lesions and normal surrounding skin
accumulation of fluorescing concentrations of PpIX (L. donovani): ALA-induced fluorescence
accumulation of fluorescing concentrations of PpIX [5]: ALA-induced fluorescence
accumulation of photosensitizing concentrations of PpIX [5]: ALA-induced photosensitization
solubility in water [6]: water soluble
